In PMC4858680, “A platinum-based hybrid drug design approach to circumvent acquired resistance to molecular targeted tyrosine kinase inhibitors” (Scientific Reports, 2016):

Experiments:
[1] = target: MET(Y1235D) (Homo sapiens, UniProt P08581, Y1235D); test: biochemical; conditions: read-out: Percent control
[2] = target: MET (Homo sapiens, UniProt P08581); conditions: 10 μM
[3] = target: T1, EPHB6 (Homo sapiens, UniProt O15197); test: biochemical; conditions: read-out: Percent control
T1 sequence (O15197 32-1021): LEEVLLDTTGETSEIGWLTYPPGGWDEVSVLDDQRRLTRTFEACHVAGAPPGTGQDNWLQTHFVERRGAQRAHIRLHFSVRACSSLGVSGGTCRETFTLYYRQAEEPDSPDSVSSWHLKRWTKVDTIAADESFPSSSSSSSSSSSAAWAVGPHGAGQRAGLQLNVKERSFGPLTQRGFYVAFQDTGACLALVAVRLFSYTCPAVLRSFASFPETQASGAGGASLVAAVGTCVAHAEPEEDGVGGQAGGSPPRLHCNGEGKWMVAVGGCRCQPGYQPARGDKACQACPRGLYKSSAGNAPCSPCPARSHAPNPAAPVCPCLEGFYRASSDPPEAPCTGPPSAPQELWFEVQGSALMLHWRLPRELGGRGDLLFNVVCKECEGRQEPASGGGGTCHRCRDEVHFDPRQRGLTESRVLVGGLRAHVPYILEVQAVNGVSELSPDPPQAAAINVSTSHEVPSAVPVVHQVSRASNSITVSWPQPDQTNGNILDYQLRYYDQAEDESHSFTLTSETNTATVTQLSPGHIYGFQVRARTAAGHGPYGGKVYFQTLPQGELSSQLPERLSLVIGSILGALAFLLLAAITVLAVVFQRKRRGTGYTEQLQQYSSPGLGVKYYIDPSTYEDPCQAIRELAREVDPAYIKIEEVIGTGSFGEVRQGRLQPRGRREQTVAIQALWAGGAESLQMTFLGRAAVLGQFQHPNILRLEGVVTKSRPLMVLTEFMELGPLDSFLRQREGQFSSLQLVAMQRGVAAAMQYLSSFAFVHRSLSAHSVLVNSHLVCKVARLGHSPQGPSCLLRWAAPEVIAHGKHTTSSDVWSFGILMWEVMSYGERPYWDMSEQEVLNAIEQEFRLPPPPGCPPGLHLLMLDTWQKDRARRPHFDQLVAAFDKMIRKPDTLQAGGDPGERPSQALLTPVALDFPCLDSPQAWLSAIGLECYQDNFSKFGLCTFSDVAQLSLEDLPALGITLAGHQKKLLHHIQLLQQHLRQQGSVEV

[4] = target: TRKC (Homo sapiens, UniProt Q16288); test: biochemical; conditions: read-out: Percent control
[5] = target: T2, EPHB1 (Homo sapiens, UniProt P54762); test: biochemical; conditions: read-out: Percent control
T2 sequence (P54762 18-984): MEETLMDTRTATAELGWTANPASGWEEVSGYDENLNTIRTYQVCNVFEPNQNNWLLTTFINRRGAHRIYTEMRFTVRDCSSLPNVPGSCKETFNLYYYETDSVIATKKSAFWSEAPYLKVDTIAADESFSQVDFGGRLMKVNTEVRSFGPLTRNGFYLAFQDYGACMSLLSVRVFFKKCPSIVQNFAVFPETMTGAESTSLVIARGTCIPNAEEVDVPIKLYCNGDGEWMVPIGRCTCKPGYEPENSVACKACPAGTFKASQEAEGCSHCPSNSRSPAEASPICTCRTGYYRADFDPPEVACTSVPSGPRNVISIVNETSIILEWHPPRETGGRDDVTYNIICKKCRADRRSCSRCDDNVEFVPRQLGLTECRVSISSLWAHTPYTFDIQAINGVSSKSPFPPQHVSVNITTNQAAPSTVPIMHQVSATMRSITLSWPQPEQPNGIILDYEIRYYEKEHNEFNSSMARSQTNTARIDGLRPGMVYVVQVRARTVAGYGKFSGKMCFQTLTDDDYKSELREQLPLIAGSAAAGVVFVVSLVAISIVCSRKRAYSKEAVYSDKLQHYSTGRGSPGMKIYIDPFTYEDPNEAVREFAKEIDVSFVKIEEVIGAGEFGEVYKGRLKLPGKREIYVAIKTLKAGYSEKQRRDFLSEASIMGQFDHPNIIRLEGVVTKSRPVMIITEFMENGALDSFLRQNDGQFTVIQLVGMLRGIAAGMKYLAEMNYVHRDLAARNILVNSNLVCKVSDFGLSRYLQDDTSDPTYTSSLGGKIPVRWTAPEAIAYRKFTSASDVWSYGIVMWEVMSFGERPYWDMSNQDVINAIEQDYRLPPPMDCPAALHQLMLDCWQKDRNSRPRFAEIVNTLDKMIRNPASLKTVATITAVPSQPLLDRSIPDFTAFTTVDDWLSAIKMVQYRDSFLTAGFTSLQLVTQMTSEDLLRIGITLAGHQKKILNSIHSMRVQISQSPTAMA

[6] = target: LTK (Homo sapiens, UniProt P29376); test: biochemical; conditions: read-out: Percent control
[7] = target: ROS1 (Homo sapiens, UniProt P08922); test: biochemical; conditions: read-out: Percent control
Chain of ROS1 (P08922 28-2347): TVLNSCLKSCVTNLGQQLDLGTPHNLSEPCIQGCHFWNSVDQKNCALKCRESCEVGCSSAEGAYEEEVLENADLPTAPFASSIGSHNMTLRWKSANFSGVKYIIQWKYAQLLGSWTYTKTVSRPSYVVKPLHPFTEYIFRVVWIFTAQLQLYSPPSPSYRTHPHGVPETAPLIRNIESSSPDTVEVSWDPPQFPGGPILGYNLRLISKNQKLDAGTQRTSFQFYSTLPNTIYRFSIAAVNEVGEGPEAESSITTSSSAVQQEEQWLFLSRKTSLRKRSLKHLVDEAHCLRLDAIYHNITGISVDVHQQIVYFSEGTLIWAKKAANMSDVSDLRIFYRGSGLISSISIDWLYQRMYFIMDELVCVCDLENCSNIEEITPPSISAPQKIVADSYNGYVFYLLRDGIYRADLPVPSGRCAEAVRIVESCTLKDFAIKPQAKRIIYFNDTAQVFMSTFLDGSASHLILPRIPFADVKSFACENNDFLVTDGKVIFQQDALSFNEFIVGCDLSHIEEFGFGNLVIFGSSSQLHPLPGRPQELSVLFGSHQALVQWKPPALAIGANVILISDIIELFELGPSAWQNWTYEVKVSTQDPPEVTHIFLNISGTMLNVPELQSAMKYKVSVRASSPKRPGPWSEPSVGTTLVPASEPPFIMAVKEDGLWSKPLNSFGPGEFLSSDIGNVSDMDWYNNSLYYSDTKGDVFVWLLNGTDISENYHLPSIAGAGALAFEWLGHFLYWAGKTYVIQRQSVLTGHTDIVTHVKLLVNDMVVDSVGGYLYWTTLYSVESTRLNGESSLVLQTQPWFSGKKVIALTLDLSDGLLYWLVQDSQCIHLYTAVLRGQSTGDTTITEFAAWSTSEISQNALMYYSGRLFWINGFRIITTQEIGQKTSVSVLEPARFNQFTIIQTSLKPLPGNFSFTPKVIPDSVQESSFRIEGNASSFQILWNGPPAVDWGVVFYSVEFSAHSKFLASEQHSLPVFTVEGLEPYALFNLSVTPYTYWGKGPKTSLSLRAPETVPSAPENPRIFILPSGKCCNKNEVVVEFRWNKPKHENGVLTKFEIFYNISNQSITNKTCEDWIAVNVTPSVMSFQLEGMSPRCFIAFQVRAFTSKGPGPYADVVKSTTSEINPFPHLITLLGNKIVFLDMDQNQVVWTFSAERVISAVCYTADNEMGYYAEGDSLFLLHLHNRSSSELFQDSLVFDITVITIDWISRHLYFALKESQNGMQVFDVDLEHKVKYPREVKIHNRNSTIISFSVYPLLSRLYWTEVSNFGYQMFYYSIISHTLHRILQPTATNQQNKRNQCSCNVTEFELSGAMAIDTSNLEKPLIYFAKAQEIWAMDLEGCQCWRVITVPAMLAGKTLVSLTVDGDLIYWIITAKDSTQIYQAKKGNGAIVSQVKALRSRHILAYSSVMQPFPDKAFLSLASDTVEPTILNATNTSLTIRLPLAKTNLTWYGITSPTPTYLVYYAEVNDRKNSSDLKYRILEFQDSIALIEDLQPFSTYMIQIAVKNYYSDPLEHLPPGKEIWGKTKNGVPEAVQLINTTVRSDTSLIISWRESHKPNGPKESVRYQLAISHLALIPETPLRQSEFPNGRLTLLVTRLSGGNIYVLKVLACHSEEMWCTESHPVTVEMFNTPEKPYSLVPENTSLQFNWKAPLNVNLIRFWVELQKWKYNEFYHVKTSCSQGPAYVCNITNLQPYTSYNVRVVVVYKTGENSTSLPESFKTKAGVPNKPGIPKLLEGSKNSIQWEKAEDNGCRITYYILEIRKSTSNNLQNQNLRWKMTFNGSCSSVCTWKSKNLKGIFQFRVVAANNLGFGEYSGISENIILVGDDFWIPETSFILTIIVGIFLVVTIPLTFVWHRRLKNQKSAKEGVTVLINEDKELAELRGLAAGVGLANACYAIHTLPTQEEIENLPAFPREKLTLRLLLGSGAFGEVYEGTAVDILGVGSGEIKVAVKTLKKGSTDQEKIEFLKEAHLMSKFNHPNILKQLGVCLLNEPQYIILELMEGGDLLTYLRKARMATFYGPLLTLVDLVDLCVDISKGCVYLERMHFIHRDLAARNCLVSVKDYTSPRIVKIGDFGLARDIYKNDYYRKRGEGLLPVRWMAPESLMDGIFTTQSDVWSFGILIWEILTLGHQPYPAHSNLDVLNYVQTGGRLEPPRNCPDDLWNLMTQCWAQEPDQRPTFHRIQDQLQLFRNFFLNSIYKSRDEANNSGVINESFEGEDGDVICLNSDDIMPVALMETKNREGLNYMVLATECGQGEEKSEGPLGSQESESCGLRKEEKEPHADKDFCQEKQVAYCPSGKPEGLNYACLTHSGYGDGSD

Chain of TRKC (Q16288 32-839): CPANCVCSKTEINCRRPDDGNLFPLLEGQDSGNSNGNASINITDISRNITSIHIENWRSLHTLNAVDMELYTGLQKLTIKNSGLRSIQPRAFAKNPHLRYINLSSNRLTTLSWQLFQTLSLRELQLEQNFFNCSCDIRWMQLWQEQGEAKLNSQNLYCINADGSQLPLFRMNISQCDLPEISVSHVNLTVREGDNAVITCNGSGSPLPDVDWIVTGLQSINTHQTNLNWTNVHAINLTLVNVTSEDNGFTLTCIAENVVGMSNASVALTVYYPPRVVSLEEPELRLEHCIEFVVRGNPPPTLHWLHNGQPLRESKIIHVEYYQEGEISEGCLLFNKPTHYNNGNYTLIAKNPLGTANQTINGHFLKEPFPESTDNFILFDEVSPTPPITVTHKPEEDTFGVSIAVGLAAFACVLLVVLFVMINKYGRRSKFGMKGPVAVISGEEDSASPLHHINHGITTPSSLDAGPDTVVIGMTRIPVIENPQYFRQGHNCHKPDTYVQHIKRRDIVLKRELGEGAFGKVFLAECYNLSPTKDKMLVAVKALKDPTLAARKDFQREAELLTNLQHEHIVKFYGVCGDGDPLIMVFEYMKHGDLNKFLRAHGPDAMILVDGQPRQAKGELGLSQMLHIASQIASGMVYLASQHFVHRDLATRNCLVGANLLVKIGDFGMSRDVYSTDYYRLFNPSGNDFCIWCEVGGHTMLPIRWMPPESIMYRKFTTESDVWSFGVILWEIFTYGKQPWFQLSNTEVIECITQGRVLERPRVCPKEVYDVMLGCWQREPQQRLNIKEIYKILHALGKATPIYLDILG
Chain of MET (P08581 25-1390): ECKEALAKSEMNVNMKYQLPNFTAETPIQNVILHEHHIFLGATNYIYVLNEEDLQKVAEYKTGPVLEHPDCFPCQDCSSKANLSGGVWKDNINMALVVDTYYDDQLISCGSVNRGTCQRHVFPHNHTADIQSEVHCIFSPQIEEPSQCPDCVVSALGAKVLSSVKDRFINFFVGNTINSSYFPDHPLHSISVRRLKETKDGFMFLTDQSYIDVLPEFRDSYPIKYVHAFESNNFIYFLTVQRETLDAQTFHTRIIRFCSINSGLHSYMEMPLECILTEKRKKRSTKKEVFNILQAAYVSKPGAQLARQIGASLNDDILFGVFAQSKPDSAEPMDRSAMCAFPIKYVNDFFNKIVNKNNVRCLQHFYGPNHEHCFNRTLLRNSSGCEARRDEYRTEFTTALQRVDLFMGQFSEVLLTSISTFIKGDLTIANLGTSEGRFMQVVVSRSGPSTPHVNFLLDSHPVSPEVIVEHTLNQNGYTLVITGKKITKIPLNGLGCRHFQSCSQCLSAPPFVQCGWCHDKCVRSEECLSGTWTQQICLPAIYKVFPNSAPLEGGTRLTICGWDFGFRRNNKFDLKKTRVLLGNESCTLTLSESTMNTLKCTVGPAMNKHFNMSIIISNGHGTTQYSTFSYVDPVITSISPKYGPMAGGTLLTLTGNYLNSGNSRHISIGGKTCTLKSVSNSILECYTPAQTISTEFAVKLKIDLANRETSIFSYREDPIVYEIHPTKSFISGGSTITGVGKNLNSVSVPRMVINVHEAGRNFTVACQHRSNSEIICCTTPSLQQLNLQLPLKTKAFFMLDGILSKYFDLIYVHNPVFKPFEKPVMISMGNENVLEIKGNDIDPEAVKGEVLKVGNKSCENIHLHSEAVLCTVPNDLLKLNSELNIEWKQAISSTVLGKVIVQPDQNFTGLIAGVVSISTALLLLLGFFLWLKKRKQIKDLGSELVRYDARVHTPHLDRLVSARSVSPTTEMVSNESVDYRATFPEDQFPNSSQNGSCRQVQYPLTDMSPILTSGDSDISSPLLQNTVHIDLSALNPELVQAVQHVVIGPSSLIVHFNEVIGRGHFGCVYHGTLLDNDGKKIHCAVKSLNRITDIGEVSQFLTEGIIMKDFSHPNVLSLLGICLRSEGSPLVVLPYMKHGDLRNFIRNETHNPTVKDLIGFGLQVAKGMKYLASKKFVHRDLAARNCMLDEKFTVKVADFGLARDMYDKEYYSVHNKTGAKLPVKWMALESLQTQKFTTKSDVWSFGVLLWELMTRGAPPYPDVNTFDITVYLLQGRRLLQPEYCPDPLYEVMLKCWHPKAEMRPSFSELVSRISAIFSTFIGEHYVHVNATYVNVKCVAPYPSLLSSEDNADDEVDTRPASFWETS

Row | SMILES | remaining activity at 10 µM [1] [%] | Percent control [2] [%] | remaining activity at 10 µM [3] [%] | remaining activity at 10 µM [4] [%] | remaining activity at 10 µM [5] [%] | remaining activity at 10 µM [6] [%] | remaining activity at 10 µM [7] [%]
1 | Cc1ccc(NC(=O)c2ccc(CN3CCN(C)CC3)cc2)cc1Nc1nccc(-c2cccnc2)n1 [Imatinib, reference compound] | 100 | – | – | – | – | – | –
2 | Cc1ccc(NC(=O)c2ccc(CN3CCN(C)CC3)cc2)cc1Nc1nccc(-c2cccnc2)[n+]1[Pt-2]1([Cl])[NH2+]C2CCCCC2[NH2+]1 (centres unmarked) [1b, oxaliplatin-imatinib] | – | 88 | – | – | – | – | –
3 | C#Cc1cccc(Nc2c3cc(OCCOC)c(OCCOC)cc3nc[n+]2[Pt@SP2-2]([NH3+])([NH3+])[Cl])c1 [2a, cisplatin-erlotinib] | – | 63 | – | – | – | – | –
4 | COc1cc2c(Nc3ccc(Br)cc3F)ncnc2cc1OCC1CCN(C)CC1 [Vandetanib, reference compound] | – | – | 0.8 | 100 | 2.8 | 5.2 | 100
5 | C#Cc1cccc(Nc2ncnc3cc(OCCOC)c(OCCOC)cc23)c1 [Erlotinib] | 9.9 | – | 14.5 | 100 | 9.9 | 8.2 | 100
